Test results from patent publication US20100062067A1, “COMPOSITIONS COMPRISING MACROMOLECULAR ASSEMBLIES OF LIPID AND SURFACTANT” (MALVERN COSMECEUTICS LIMITED, priority 2006, published 2010).
Starred links: 1 amine or outer side, 2 acyl side, 3 side chain; linkers in the order of their positions; H or OH if unused. Positions of bridges follow the written chain, without caps; N, C: chain ends. Non-standard residues stand in square brackets, D forms with d. Residues, ends and D or L forms follow the SMILES beside them. X1 = CC(C)CCCCCCCCC[C@H](CC(=O)[*:1])O[*:2]

Assay: not given
Details: Surf. Brij 35P 2.5%, lipid 90H 1.0%, co-surf. S LPC ca. 0.01% (as SL 80-3 0.05%), active agent 0.10%

Turbidity (FNU) | Compound
72.4 | CCCCCCCCCCCCCCCC(=O)OC[C@H](O)[C@H]1OC(=O)C(O)=C1O [Ascorbyl palmitate]
52.9 | COc1ccc(C(=O)CC(=O)c2ccc(C(C)(C)C)cc2)cc1 [Avobenzene]
19.24 | CCCCC(=O)O[C@]1(C(=O)CO)[C@@H](C)C[C@H]2[C@@H]3CCC4=CC(=O)C=C[C@]4(C)[C@@]3(F)[C@@H](O)C[C@@]21C [Betamethasone 17-valerate]
29.70 | CC12CCC(CC1=O)C2(C)C (stereo not shown) [Camphor (S-Black)]
10.91 | CC(C)CCC[C@@H](C)[C@H]1CC[C@H]2[C@@H]3CC=C4C[C@@H](O)CC[C@]4(C)[C@H]3CC[C@]12C [Cholesterol]
23.3 | CCC(=O)O[C@]1(C(=O)CCl)[C@@H](C)C[C@H]2[C@@H]3CCC4=CC(=O)C=C[C@]4(C)[C@@]3(F)[C@@H](O)C[C@@]21C [Clobetasol Propionate]
10.4 | Clc1ccccc1C(c1ccccc1)(c1ccccc1)n1ccnc1 [Clotrimazole]
6.38 | O=C(CCCCc1ccc2c(c1)OCO2)N1CCCCC1 [Cosmoperine]
16.44 | O=C1OC2(c3cc(Br)c(O)c(Br)c3Oc3c2cc(Br)c(O)c3Br)c2c(Cl)c(Cl)c(Cl)c(Cl)c21 [D&C Red No. 27]
14.39 | O=C(O)Cc1ccccc1Nc1c(Cl)cccc1Cl [Diclofenac]
10.02 | COc1ccc(C(=O)c2ccccc2)c(O)c1 [Eusolex 4360]
55.9 | CCCC(=O)O[C@]1(C(=O)CO)CC[C@H]2[C@@H]3CCC4=CC(=O)CC[C@]4(C)[C@H]3[C@@H](O)C[C@@]21C [Hydrocortisone-17 butyrate]
19.4 | CC1=CCC(O)(C(C)C)CC1 (stereo not shown) [Melaleucol]
40.5 | CC(Cc1ccc(O)c(O)c1)C(C)Cc1ccc(O)c(O)c1 (stereo not shown) [NDGA]
14.99 | COc1ccc2cc([C@H](C)C(=O)O)ccc2c1 [Naproxen]
19.76 | NC[C@@H]1O[C@H](O[C@H]2[C@@H](O)[C@H](O[C@@H]3[C@@H](O)[C@H](N)C[C@H](N)[C@H]3O[C@H]3O[C@H](CN)[C@@H](O)[C@H](O)[C@H]3N)O[C@@H]2CO)[C@H](N)[C@@H](O)[C@@H]1O.O=S(=O)(O)O [Neomycin sulphate]
8.81 | Nc1ccc(C(=O)O)cc1 [PABA]
31.5 | O=C(/C=C/c1ccc(O)c(O)c1)O[C@H](Cc1ccc(O)c(O)c1)C(=O)O [Rosmarinic acid (90%)]
88.9 | CCCCCCCCCCCCCCCCCCOC(=O)[C@@]1(C)CC[C@]2(C)CC[C@]3(C)C(=CC(=O)[C@@H]4[C@@]5(C)CC[C@H](O)C(C)(C)[C@@H]5CC[C@]43C)[C@@H]2C1 [Stearyl glycrrhetinate]

Compound | Turbidity (FNU)
CC(C)CCC[C@@H](C)[C@H]1CC[C@H]2C3=CC=C4C[C@@H](O)CC[C@]4(C)[C@H]3CC[C@]12C [7-dehydrocholesterol] | 58.4
CC(C)CCC[C@@H](C)[C@H]1CC[C@H]2[C@@H]3CC=C4C[C@@H](OS(=O)(=O)O)CC[C@]4(C)[C@H]3CC[C@]12C [Cholesterol sulphate] | 9.48
C[C@@H]1[C@H](O)[C@@H](C)/C=C/C=C/CC/C=C/C=C/C=C/C=C/C(O[C@H]2O[C@H](C)[C@@H](O)[C@H](N)[C@@H]2O)CC2O[C@](O)(CC(O)C(O)CCC(O)CC(O)CC(O)CC(=O)O[C@H]1C)CC(O)C2C(=O)O (stereo partly shown) [Nystatin] | 21.3

Same assay, conditions: Surf. Brij 35P 2.5%, lipid 90H 1.0%, co-surf. S LPC ca. 0.01% (as SL 80-3 0.05%), active agent 0.20%

Turbidity (FNU) | Compound
22.78 | COC(=O)[C@@H]1[C@H]2C[C@H]3c4[nH]c5ccccc5c4CCN3C[C@@H]2CC[C@@H]1O.Cl [Yohimbine HCl USP HO]

Same assay, conditions: Surf. Brij 35P 2.5%, lipid 90H 1.0%, co-surf. S LPC ca. 0.01% (as SL 80-3 0.05%), active agent 0.25%

Turbidity (FNU) | Compound
18.84 | O=C(OCc1ccccc1)c1cccnc1 [Benzyl nicotinate]
26.80 | CC12CCC(CC1=O)C2(C)C (stereo not shown) [Camphor]
10.00 | C[C@]12CCC(=O)C=C1CC[C@@H]1[C@@H]2[C@@H](O)C[C@@]2(C)[C@H]1CC[C@]2(O)C(=O)CO [Hydrocortisone]
9.10 | Cc1cc(CC(C)CC(C)(C)C)n(O)c(=O)c1.NCCO (stereo not shown) [Octopirox ®]
46.81 | CC1CCC(C(C)C)C(OC(=O)[C@@H]2CCC(=O)N2)C1 (stereo partly shown) [Questice CQ U/A]
5.49 | OCc1cc(C(O)CNCCCCCCOCCCCc2ccccc2)ccc1O (stereo not shown) [Salmeterol xinafoate]
10.43 | C=CCCCCCCCCC(=O)N[C@@H](Cc1ccccc1)C(=O)O [SepiWhite MSH]
12.89 | CC(C)c1c(O)ccc2c1CC[C@H]1C(C)(C)CCC[C@]21C [Totarol ®]
9.85 | COC(=O)[C@@H]1[C@H]2C[C@H]3c4[nH]c5ccccc5c4CCN3C[C@@H]2CC[C@@H]1O.Cl [Yohimbine HCl Crystalline]
13.42 | COC(=O)[C@@H]1[C@H]2C[C@H]3c4[nH]c5ccccc5c4CCN3C[C@@H]2CC[C@@H]1O.Cl [Yohimbine HCl USP]

Same assay, conditions: Surf. Brij 35P 2.5%, lipid 90H 1.0%, co-surf. S LPC ca. 0.01% (as SL 80-3 0.05%), active agent 0.80%

Turbidity (FNU) | Compound
6.91 | Cc1cc(CC(C)CC(C)(C)C)n(O)c(=O)c1.NCCO (stereo not shown) [Octopirox ®]

Same assay, conditions: Surf. Brij 35P 2.5%, lipid 90H 1%, co-surf. S LPC ca. 0.01% (as SL 80-3 0.05%), active agent […]

Turbidity (FNU) | Compound
14.59 | CC12CCC(/C(=C\c3ccccc3)C1=O)C2(C)C (stereo not shown) [Unisol S-22]

Same assay, conditions: Surf. Protasorb L-20 2.5%, lipid 90H 1.0%, co-surf. S LPC ca. 0.01% (as SL 80-3 0.05%), active agent 0.10%

Turbidity (FNU) | Compound
29.60 | Vitamin E

Same assay, conditions: Surf. Volpo L23 2.5%, lipid 90H 1.0%, co-surf. S LPC ca. 0.01% (as SL 80-3 0.05%), active agent 0.10%

Turbidity (FNU) | Compound
21.85 | O=C1OC2(c3cc(Br)c(O)c(Br)c3Oc3c2cc(Br)c(O)c3Br)c2c(Cl)c(Cl)c(Cl)c(Cl)c21 [D&C Red No. 27]

Same assay, conditions: Surf. Volpo L23 2.5%, lipid 90H 1.0%, co-surf. S LPC ca. 0.01% (as SL 80-3 0.05%), active agent 0.25%

Turbidity (FNU) | Compound
19.40 | Cc1c(C2(c3cc(Br)c(O)c(Br)c3C)OS(=O)(=O)c3ccccc32)cc(Br)c(O)c1Br [Bromocresol Green]
10.85 | Cc1cc(C2CCCCC2)n(O)c(=O)c1 [Ciclopirox olamine, reference compound]
71.50 | Clc1ccc(COC(Cn2ccnc2)c2ccc(Cl)cc2Cl)cc1 (stereo not shown) [Econazole nitrate]
61.70 | CCCCCCCCCCCCOC(=O)[C@@H]1CCC(=O)N1 [Laurydone ®]
58.60 | CCCCCCCCCCCCCCOC(=O)[C@@H]1CCC(=O)N1 [Myristidone ®]

Assay: Turbidity of surfactant/lipid compositions, formation of macromolecular complexes (Example 1)
Format: physicochemical
Details: 2.5% surfactant, 1% 90H lipid, ca. 0.01% S LPC co-surfactant (as 0.05% SL 80-3) in water, room temperature
Description: Briefly, to the appropriate volume of warm water (ca. 60° C.), SL 80-3 was added. […] 90H was then added gradually, with heating and stirring maintained throughout and for a further 45 minutes after completion.
After mixing the solution was stirred and heated to around 60-70° C.
The required quantity of warm lipid emulsion was slowly added to the warm surfactant solution while stirring with the temperature maintained.

Average Turbidity [FNU] | Compound
>150 | O=C(O)C(O)c1ccccc1 (racemic) [Mandelic Acid, DL-Mandelic acid]
13.16 | CC(C)CCCCCCCCC[C@@H]1CC(=O)N[C@@H](CCC(=O)O)C(=O)N[C@@H](CC(C)C)C(=O)N[C@H](CC(C)C)C(=O)N[C@@H](C(C)C)C(=O)N[C@@H](CC(=O)O)C(=O)N[C@H](CC(C)C)C(=O)N[C@@H](CC(C)C)C(=O)O1 [Aminofect, Surfactin] (EL[dL]VD[dL]L; linker N-C via X1)
>150 | CCCCCCCCCC(=O)O [Capric Acid, Decanoic acid]
>150 | CCCCCCCCCCCC(=O)O [Lauric Acid, Dodecanoic acid]
>150 | CCCCCCCC(=O)O [Octanoic Acid, Octanoic acid]
>150 | CCCCCCCCCCCCCCCC(=O)O [Palmitic Acid, Hexadecanoic acid]
>150 | O=C(O)c1ccccc1O [Salicylic Acid, 2-Hydroxybenzoic acid]

Compound | Average Turbidity [FNU]
O=C(O)c1ccccc1 [Benzoic Acid, Benzoic acid] | >150
CCCCCC(=O)O [Caproic Acid, Hexanoic acid] | >150
CCCCCCCC/C=C\CCCCCCCC(=O)[O-].[K+] [Potassium Oleate, Potassium oleate] | >150
